The source of these data is US20230310388A1, “Methods and Compositions for Treating Fungal Infections” (Neoculi Pty Ltd, priority 2020, published 2023).

As a reminder, the MIC is the smallest concentration in the dilution series that meets the test's criterion for growth inhibition.

The test system of this test is Candida albicans ATCC14053. Put plainly: Broth micro-dilution screen at 16 μg/mL and MIC (Example 9). The format is cell-based. Particulars: for Screen at 16 μg/mL: single concentration 16 μg/mL, Growth or No growth of C. albicans ATCC14053; for MIC: C. albicans ATCC14053, test range 0.25-64 μg/mL, duplicate. As to the method:
The antifungal activity of 201 NCL analogs against Candida albicans ATCC14053 in vitro was investigated. A broth micro-dilution method was used, according to CLSI guidelines as described. NCL analogs were dissolved in DMSO and originally screened at a single concentration of 16 μg/mL.

Structures are written as SMILES. In brackets after ≈: the same amount, converted by molar mass. Several values for one entry are separate records, joined by “and”; a condition that tells them apart may be missing. Equal entries are not always repeated. A value given as a limit tells only on which side of the number the result lay.

Regarding `Cl.N=C(N)NN=Cc1ccc2nsnc2c1` [NCL280], the “Screen at 16 μg/mL” value is “Growth”.
As for `Cc1ccccc1C=NNC(=O)NN=Cc1ccccc1C` [NCL018], the “Screen at 16 μg/mL” value was “Growth”.
Same read-out and setting: as for `O=C(NN=Cc1cccc(C(F)(F)F)c1)NN=Cc1cccc(C(F)(F)F)c1` [NCL011], the entry is “Growth”.
Same read-out and setting: as for `Cl.N=C(NN=CC(=Cc1ccccc1)c1ccccc1)NN=CC(=Cc1ccccc1)c1ccccc1` [NCL138], the entry is “Growth”; as for `CN(C)c1ccc(C=NNc2cc(NN=Cc3ccc(N(C)C)cc3)nc(N)n2)cc1` [NCL201], “Growth”.
On to `COc1ccc(C=NNC(=N)NN=Cc2ccc(OC)cc2)cc1.Cl` [NCL027], for which the MIC is 8 µg/mL and 16 µg/mL; the “Screen at 16 μg/mL” value is on record as “No growth”.
Turning to `Cl.N=C(NN=Cc1ccc(SC(F)(F)F)cc1)NN=Cc1ccc(SC(F)(F)F)cc1` [NCL166], the “Screen at 16 μg/mL” value is listed as “Growth”.
With `Cl.N=C(NN=Cc1ccc(OC(F)(F)F)cc1)NN=Cc1ccc(OC(F)(F)F)cc1` [NCL160], the MIC was 1 µg/mL and 2 µg/mL; the “Screen at 16 μg/mL” value is given as “No growth”.
As for `CC(C)c1ccc(C=NNC(=N)NN=Cc2ccc(C(C)C)cc2)cc1.Cl` [NCL120], the “Screen at 16 μg/mL” value is “Growth”.
As to `COc1ccc(C=NNC(=N)NN=Cc2ccc(OC)c(O)c2)cc1O.Cl` [NCL125], the “Screen at 16 μg/mL” value was “Growth”.
Take `N=C(N)NN=C(CC1CCCCC1)c1ccc(Cl)cc1O` [NCL237]: the “Screen at 16 μg/mL” value was “Growth”.
Still for that read-out and setting: to `COc1cccc(C=NNC(=N)NN=Cc2cccc(OC)c2)c1.Cl` [NCL029] belongs “Growth”; to `Clc1ccc(C=NCCCN=Cc2ccc(Cl)cc2)cc1` [NCL252], “Growth”.
In the case of `Nc1nc(NN=Cc2ccc(Br)cc2)nc(NN=Cc2ccc(Br)cc2)n1` [NCL212], the “Screen at 16 μg/mL” value is on record as “Growth”.
For `Cl.N=C(NN=Cc1ccc(Cl)cc1F)NN=Cc1ccc(Cl)cc1F` [NCL216], the MIC is more than 64 µg/mL and the “Screen at 16 μg/mL” value was “Growth”.
`CC(=NNc1cc(NN=C(C)c2ccc(Cl)cc2)ncn1)c1ccc(Cl)cc1.Cl` [NCL185]: the “Screen at 16 μg/mL” value is “Growth”.
Still for that read-out and setting: as for `Cl.N=C(N)N/N=C/c1cccc2nsnc12` [NCL281], the entry is “Growth”; as for `Nc1nc(NN=Cc2ccccc2)nc(NN=Cc2ccccc2)n1` [NCL214], “Growth”.
For `Cl.N=C(NN=C1C(=O)Nc2ccccc21)NN=C1C(=O)Nc2ccccc21` [NCL163], the “Screen at 16 μg/mL” value is recorded as “Growth”.
On to `Cl.N=C(NN=Cc1ccccc1[N+](=O)[O-])NN=Cc1ccccc1[N+](=O)[O-]` [NCL102], for which the “Screen at 16 μg/mL” value is listed as “Growth”.
Consider `Cl.N=C(NN=Cc1ccc2ncccc2c1)NN=Cc1ccc2ncccc2c1` [NCL282], for which the “Screen at 16 μg/mL” value was “No growth”.
`Cc1ccccc1C=NNC(=N)N.Cl` [NCL045]: the “Screen at 16 μg/mL” value is recorded as “Growth”.
Consider `Cl.N=C(NN=Cc1cccc(Br)c1)NN=Cc1cccc(Br)c1` [NCL131], for which the “Screen at 16 μg/mL” value was “Growth”.
Regarding `COc1ccc(C=NNc2cc(NN=Cc3ccc(OC)cc3)nc(N)n2)cc1` [NCL230], the “Screen at 16 μg/mL” value was “Growth”.
`O=C(NN=Cc1ccc(C(F)(F)F)cc1)NN=Cc1ccc(C(F)(F)F)cc1` [NCL012]: the “Screen at 16 μg/mL” value is listed as “Growth”.
`N#Cc1ccc(C=NNC(=O)NN=Cc2ccc(C#N)cc2)cc1` [NCL007]: the “Screen at 16 μg/mL” value is listed as “Growth”.
Regarding `CC(=O)Nc1ccc(C=NNc2cc(NN=Cc3ccc(NC(C)=O)cc3)nc(N)n2)cc1` [NCL223], the “Screen at 16 μg/mL” value was “Growth”.
Take `Nc1nc(NN=Cc2cccc(O)c2O)cc(NN=Cc2cccc(O)c2O)n1.O=Cc1cccc(O)c1O` [NCL244]: the MIC is more than 64 µg/mL and the “Screen at 16 μg/mL” value is recorded as “Growth”.
Consider `Nc1nc(NN=Cc2ccc(O)cc2O)cc(NN=Cc2ccc(O)cc2O)n1` [NCL256], for which the “Screen at 16 μg/mL” value is reported as “Growth”.
As to `Cl.N=C(NN=CC1=C(Cl)c2cc(F)ccc2OC1)NN=CC1=C(Cl)c2cc(F)ccc2OC1` [NCL132], the “Screen at 16 μg/mL” value is “Growth”.
Consider `Cl.N=C(N)NN=Cc1ccccc1Cl` [NCL015], for which the “Screen at 16 μg/mL” value is “Growth”.
For the compound `Nc1nc(NN=Cc2ccc(Cl)cc2)cc(NN=Cc2ccc(Cl)cc2)n1` [NCL179], the “Screen at 16 μg/mL” value is recorded as “Growth”.
For `COc1ccccc1C=NNC(=N)NN=Cc1ccccc1OC.Cl` [NCL028], the “Screen at 16 μg/mL” value was “Growth”.
For the compound `COc1cc(C=NNC(=N)NN=Cc2cc(O)c(O)c(OC)c2)cc(O)c1O.Cl` [NCL106], the “Screen at 16 μg/mL” value was “Growth”.
Consider `Cl.N=C(NN=Cc1cccc(O)c1)NN=Cc1cccc(O)c1` [NCL108], for which the “Screen at 16 μg/mL” value is reported as “Growth”.
Turning to `Nc1nc(NN=Cc2ccccc2O)cc(NN=Cc2ccccc2O)n1` [NCL202], the “Screen at 16 μg/mL” value is given as “Growth”.
Consider `Cl.N=C(NN=Cc1cccc(Cl)c1)NN=Cc1cccc(Cl)c1` [NCL054], for which the MIC is 4 µg/mL and 8 µg/mL; the “Screen at 16 μg/mL” value is reported as “No growth”.
In the case of `CC(=NNC(=N)NN=C(C)c1ccc(C(F)(F)F)cc1)c1ccc(C(F)(F)F)cc1.Cl` [NCL061], the “Screen at 16 μg/mL” value is on record as “Growth”.
As to `N=C(N/N=C/c1ccc(-c2ccccc2)cc1)N/N=C/c1ccc(-c2ccccc2)cc1` [NCL112], the “Screen at 16 μg/mL” value was “Growth”.
Take `C/C(=N\NC(=N)N/N=C(\C)c1ccc(C)cc1)c1ccc(C)cc1.Cl` [NCL217]: the MIC worked out at 4 µg/mL and the “Screen at 16 μg/mL” value is recorded as “No growth”.
Consider `Nc1nc(NN=Cc2ccc(O)c(O)c2)cc(NN=Cc2ccc(O)c(O)c2)n1` [NCL243], for which the MIC was 16 µg/mL and 32 µg/mL; the “Screen at 16 μg/mL” value was “No growth”.
As to `CCCCC(=NNC(=N)N)c1ccc(Cl)cc1.Cl` [NCL188], the “Screen at 16 μg/mL” value is given as “Growth”.
Take `CC(=NNc1cc(NN=C(C)c2ccc(Cl)cc2)ncn1)c1ccc(Cl)cc1` [NCL178]: the “Screen at 16 μg/mL” value was “Growth”.
For the compound `CCCC(=NNC(=N)NN=C(CCC)c1ccc(Cl)cc1)c1ccc(Cl)cc1.Cl` [NCL156], the “Screen at 16 μg/mL” value was “Growth”.
Regarding `COc1cc(C=NNC(=N)NN=Cc2cc(Br)c(OC)c(OC)c2)cc(Br)c1OC.Cl` [NCL130], the “Screen at 16 μg/mL” value is listed as “Growth”.
On the same count and under the same terms, as for `Nc1nc(NN=Cc2ccncc2)cc(NN=Cc2ccncc2)n1` [NCL241], the entry is “Growth”.
The same measure, in the same setting: as for `Nc1nc(NN=Cc2cccnc2)cc(NN=Cc2cccnc2)n1` [NCL239], the entry is “Growth”.
Turning to `Cc1cccc(C=NNC(=N)NN=Cc2cccc(C)c2)c1.Cl` [NCL040], the MIC was 8 µg/mL and 16 µg/mL; the “Screen at 16 μg/mL” value is “No growth”.
Consider `COc1ccc(C=CC=NNC(=N)NN=CC=Cc2ccc(OC)cc2)cc1.Cl` [NCL150], for which the MIC amounted to 1 µg/mL and the “Screen at 16 μg/mL” value is “No growth”.
As to `CC(C)(C)c1ccc(C=NNc2cc(NN=Cc3ccc(C(C)(C)C)cc3)nc(N)n2)cc1.Cl.Cl` [NCL198], the “Screen at 16 μg/mL” value is “Growth”.
On the same count and under the same terms, to `Cl.N=C(N)NN=Cc1cccc(C(F)(F)F)c1` [NCL043] belongs “Growth”.
Regarding `CCO/C(N)=N/N=C(\C)c1ccc(Cl)cc1` [NCL162], the “Screen at 16 μg/mL” value is listed as “Growth”.
For `Nc1nc(NN=CCCc2ccccc2)cc(NN=CCCc2ccccc2)n1` [NCL262], the “Screen at 16 μg/mL” value is “Growth”.
As for `Cl.N=C(NN=Cc1cccc(C(F)(F)F)c1)NN=Cc1cccc(C(F)(F)F)c1` [NCL037], the “Screen at 16 μg/mL” value is given as “Growth”.
As to `Cl.N=C(NN=Cc1ccc(O)c(O)c1O)NN=Cc1ccc(O)c(O)c1O` [NCL105], the MIC was 2 µg/mL and 4 µg/mL; the “Screen at 16 μg/mL” value is listed as “No growth”.
With `CC(=NNC(=N)N)c1ccc(C(C)(C)C)cc1` [NCL231], the “Screen at 16 μg/mL” value is on record as “Growth”.
Same read-out and setting: to `Cl.N=C(NN=Cc1ccc2ccccc2c1)NN=Cc1ccc2ccccc2c1` [NCL093] belongs “Growth”; to `O=C(NN=Cc1ccccc1C(F)(F)F)NN=Cc1ccccc1C(F)(F)F` [NCL013], “Growth”; to `CC(=NNc1nc(N)nc(NN=C(C)c2ccc(Cl)cc2)n1)c1ccc(Cl)cc1` [NCL208], “Growth”.
On to `Nc1nc(NN=Cc2ccccc2)cc(NN=Cc2ccccc2)n1` [NCL199], for which the “Screen at 16 μg/mL” value is reported as “Growth”.
The same measure, in the same setting: to `Cl.N=C(NN=Cc1ccccc1Br)NN=Cc1ccccc1Br` [NCL129] belongs “Growth”; to `CCCCCCCC(=NNC(=N)NN=C(CCCCCCC)c1ccc(Cl)cc1)c1ccc(Cl)cc1` [NCL272], “Growth”; to `O=C(NN=Cc1ccc(Cl)cc1)NN=Cc1ccc(Cl)cc1` [NCL001], “Growth”.
For `Cl.N=C(N)NN=Cc1ccc2ccccc2c1` [NCL261], the “Screen at 16 μg/mL” value was “Growth”.
For `Nc1nc(NN=CC2CCCCC2)nc(NN=CC2CCCCC2)n1` [NCL213], the “Screen at 16 μg/mL” value was “Growth”.
For `Cl.N=C(NN=Cc1cnccc1Cl)NN=Cc1cnccc1Cl` [NCL175], the “Screen at 16 μg/mL” value is reported as “Growth”.
As to `CCCCCC(=NNC(=N)NN=C(CCCCC)c1ccc(Cl)cc1)c1ccc(Cl)cc1` [NCL271], the MIC is 1 µg/mL (≈ 2.11 µM) and the “Screen at 16 μg/mL” value is listed as “No growth”.
For `Nc1nc(NN=Cc2ccc(-c3ccccc3)cc2)cc(NN=Cc2ccc(-c3ccccc3)cc2)n1` [NCL255], the “Screen at 16 μg/mL” value was “Growth”.
`Nc1nc(NN=Cc2ccc(C(F)(F)F)cc2)cc(NN=Cc2ccc(C(F)(F)F)cc2)n1` [NCL221]: the “Screen at 16 μg/mL” value is given as “Growth”.
Consider `Cl.N#Cc1cccc(C=NNC(=N)NN=Cc2cccc(C#N)c2)c1` [NCL026], for which the “Screen at 16 μg/mL” value is reported as “Growth”.
For `CCC(=NNC(=N)N)c1ccc(Cl)cc1` [NCL234], the “Screen at 16 μg/mL” value is reported as “Growth”.
Turning to `CC(Nc1cc(NC(C)c2ccccc2)nc(N)n1)c1ccccc1` (stereo not shown) [NCL184], the “Screen at 16 μg/mL” value was “Growth”.
On to `CCCC(=NNC(=N)N)c1ccc(Cl)cc1.Cl` [NCL233], for which the “Screen at 16 μg/mL” value is “Growth”.
On to `Cl.N=C(N)NN=Cc1nc2ccccc2s1` [NCL279], for which the “Screen at 16 μg/mL” value is “Growth”.
